{"source": "paper PMC10118179", "about": "“Tannic acid, an IL-1β-direct binding compound, ameliorates IL-1β-induced inflammation and cartilage degradation by hindering IL-1β-IL-1R1 interaction” (PLOS ONE, 2023)", "target": "T1, Interleukin-1β (IL-1β) (Homo sapiens, UniProt P01584)", "T1 construct": "gene IL1B; recombinant human IL-1β", "T1 sequence (P01584 117-269)": "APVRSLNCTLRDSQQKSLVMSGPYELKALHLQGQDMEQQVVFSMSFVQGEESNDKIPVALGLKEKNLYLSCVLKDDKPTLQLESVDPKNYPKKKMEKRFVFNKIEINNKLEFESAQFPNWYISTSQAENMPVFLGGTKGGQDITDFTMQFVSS", "experiment": "SPR (Biacore T200, IL-1β immobilized on CM5 chip)", "assay_type": "binding", "data": [{"smiles": "O=C(OC[C@H]1O[C@@H](OC(=O)c2cc(O)c(O)c(OC(=O)c3cc(O)c(O)c(O)c3)c2)[C@H](OC(=O)c2cc(O)c(O)c(OC(=O)c3cc(O)c(O)c(O)c3)c2)[C@@H](OC(=O)c2cc(O)c(O)c(OC(=O)c3cc(O)c(O)c(O)c3)c2)[C@@H]1OC(=O)c1cc(O)c(O)c(OC(=O)c2cc(O)c(O)c(O)c2)c1)c1cc(O)c(O)c(OC(=O)c2cc(O)c(O)c(O)c2)c1", "note": "[TA, Tannic acid]", "values": [{"measurement": "Kd", "value": 822, "unit": "nM"}]}]}
